Values after ≈ are worked out from the molar mass of the structure shown. Like-named read-outs stand apart in the source and are kept apart here.
How the values were obtained:
[1] = test system: M. fermentans MWKL4; assay: Anti-mycoplasma MIC; type: cell-based; details: Mycoplasmopsis fermentans
[2] = test system: Staph. aureus B4 (pen resistant); assay: MIC against veterinary bacteria; details: Staphylococcus aureus
[3] = test system: M. hyorhinis ATCC 23234; assay: Anti-mycoplasma MIC; type: cell-based; details: Mesomycoplasma hyorhinis, ATCC23234
[4] = test system: M. suipneumoniae J2206/183b; assay: Anti-mycoplasma MIC; type: cell-based; details: Mesomycoplasma hyopneumoniae, J2206/183B
[5] = test system: Past. multocida PA2; assay: MIC against veterinary bacteria; details: Pasteurella multocida
[6] = test system: Past. multocida PA1; assay: MIC against veterinary bacteria; details: Pasteurella multocida
[7] = test system: Strep. uberis SPU1; assay: MIC against veterinary bacteria; details: Streptococcus uberis
[8] = test system: M. synoviae ATCC 25204; assay: Anti-mycoplasma MIC; type: cell-based; details: Mycoplasmopsis synoviae, ATCC25204
[9] = test system: M. dispar NCTC 10125; assay: Anti-mycoplasma MIC; type: cell-based
[10] = test system: M. hyosynoviae ATCC 25591; assay: Anti-mycoplasma MIC; type: cell-based
[11] = test system: H. influenzae Wy21; assay: MIC by serial dilution in nutrient agar (human bacteria); details: Haemophilus influenzae
[12] = test system: M. suipneumoniae Str. 11; assay: Anti-mycoplasma MIC; type: cell-based; details: Mesomycoplasma hyopneumoniae, STR.11
[13] = test system: Strep. pneumoniae CN33; assay: MIC by serial dilution in nutrient agar (human bacteria); details: Streptococcus pneumoniae
[14] = test system: Staph. aureus Russell; assay: as above; details: Staphylococcus aureus
[15] = test system: H. influenzae Q1; assay: as above; details: Haemophilus influenzae
[16] = test system: Bord. bronchiseptica BO9; assay: MIC against veterinary bacteria; details: Bordetella bronchiseptica
[17] = test system: Strep. dysgalactiae SPD1; assay: MIC against veterinary bacteria; details: Streptococcus dysgalactiae
[18] = test system: Past. multocida 1633; assay: MIC by serial dilution in nutrient agar (human bacteria); details: Pasteurella multocida
[19] = test system: M. pneumoniae 427a; assay: Anti-mycoplasma MIC; type: cell-based; details: Mycoplasmoides pneumoniae
[20] = test system: M. pulmonis JB; assay: Anti-mycoplasma MIC; type: cell-based; details: Mycoplasmopsis pulmonis
[21] = test system: Strep. pyogenes B 2788; assay: MIC by serial dilution in nutrient agar (human bacteria); details: Streptococcus pyogenes, B2788
[22] = test system: M. gallisepticum S6; assay: Anti-mycoplasma MIC; type: cell-based; details: Mycoplasmoides gallisepticum
[23] = test system: M. bovis ATCC 25025; assay: microbe, parasite or virus in culture; type: cell-based; details: ATCC25025
[24] = test system: M. bovis NCTC 10131; assay: microbe, parasite or virus in culture; type: cell-based; details: NCTC10131
[25] = test system: M. dispar H225; assay: Anti-mycoplasma MIC; type: cell-based
[26] = test system: M. bovigenitalium ATCC 14173; assay: Anti-mycoplasma MIC; type: cell-based
[27] = test system: M. alkalescens NCTC 10135; assay: Anti-mycoplasma MIC; type: cell-based
[28] = test system: M. pneumoniae ATCC 15492; assay: Anti-mycoplasma MIC; type: cell-based; details: Mycoplasmoides pneumoniae, ATCC15492, M. pneumoniae ATCC 15492
[29] = test system: M. arthritidis ATCC 14124; assay: Anti-mycoplasma MIC; type: cell-based
[30] = test system: Strep. agalactiae SPA1; assay: MIC against veterinary bacteria; details: Streptococcus agalactiae
[31] = test system: N. catarrhalis 1502; assay: MIC by serial dilution in nutrient agar (human bacteria); details: Neisseria
[32] = test system: B. subtilis; assay: as above; details: Bacillus subtilis
[33] = test system: Staph. aureus Oxford; assay: as above; details: Staphylococcus aureus
[34] = test system: Bord. bronchiseptica BO8; assay: MIC against veterinary bacteria; details: Bordetella bronchiseptica
[35] = test system: Strep. pyogenes C 2761; assay: MIC by serial dilution in nutrient agar (human bacteria); details: Streptococcus pyogenes, C2761
[36] = test system: Staph. aureus 152 (pen sensitive); assay: MIC against veterinary bacteria; details: Staphylococcus aureus
[37] = test system: Strep. pyogenes A 64/848; assay: MIC by serial dilution in nutrient agar (human bacteria); details: Streptococcus pyogenes, A64/848
[38] = test system: Past. haemolytica PA5; assay: MIC against veterinary bacteria; details: Mannheimia haemolytica
[39] = test system: Staph. aureus 1517; assay: MIC by serial dilution in nutrient agar (human bacteria); type: cell-based; details: Staphylococcus aureus
[40] = Agar (serial dilution in Friis' agar), read-out: MIC
[41] = Broth (Friis' broth, microtiter method), read-out: MIC
[42] = Agar (serial dilution in Friis' agar)
[43] = Broth (Friis' broth, microtiter method)

With C/C(=C\C(=O)OCC(C)C)CC1OCC(C/C=C/C(C)C(C)O)C(O)C1O (stereo not drawn) [Isobutyl, Isobutyl Monate C] the MIC [1, 40] was 0.312 µg/mL (≈ 0.811 µM), the MIC [1, 41] was 0.039 µg/mL (≈ 0.101 µM) and the MIC [2] was 1.25 µg/mL (≈ 3.25 µM). It also gave an MIC ([3]; M. hyorhinis ATCC 23234, Agar (serial dilution in Friis' agar), read-out: MIC) of 2.5 µg/mL (≈ 6.5 µM), an MIC [4] of 1.25 µg/mL (≈ 3.25 µM) and an MIC [5] of 10 µg/mL (≈ 26 µM). For the same compound, the MIC [6] was 10 µg/mL (≈ 26 µM), the MIC [7] was 1.25 µg/mL (≈ 3.25 µM) and the MIC ([8]; M. synoviae ATCC 25204, Agar (serial dilution in Friis' agar), read-out: MIC) was 0.078 µg/mL (≈ 0.203 µM). The MIC ([9]; M. dispar NCTC 10125, Broth (Friis' broth, microtiter method), read-out: MIC) was 0.312 µg/mL (≈ 0.811 µM), the MIC ([10]; M. hyosynoviae ATCC 25591, Agar (serial dilution in Friis' agar), read-out: MIC) was 0.625 µg/mL (≈ 1.63 µM) and the MIC [11] was 1 µg/mL (≈ 2.6 µM). The MIC [12] was 1.25 µg/mL (≈ 3.25 µM), the MIC [13] was 5 µg/mL (≈ 13 µM) and the MIC [14] was 1 µg/mL (≈ 2.6 µM). For the same compound, the MIC [15] was 1 µg/mL (≈ 2.6 µM), the MIC [16] was 40 µg/mL (≈ 104 µM) and the MIC [17] was 5 µg/mL (≈ 13 µM). The MIC [18] was 5 µg/mL (≈ 13 µM), the MIC [19, 40] was 10 µg/mL (≈ 26 µM) and the MIC [19, 41] was 1.25 µg/mL (≈ 3.25 µM). The MIC [20, 40] was 0.078 µg/mL (≈ 0.203 µM), the MIC [20, 41] was less than 0.02 µg/mL and the MIC [21] was 25 µg/mL (≈ 65 µM). For the same compound, the MIC ([22]; M. gallisepticum S6, Agar (serial dilution in Friis' agar), read-out: MIC) was greater than 10 µg/mL, the MIC [23] was 0.156 µg/mL (≈ 0.406 µM) and the MIC [24] was 0.156 µg/mL (≈ 0.406 µM). It also gave an MIC ([25]; M. dispar H225, Broth (Friis' broth, microtiter method), read-out: MIC) of 0.312 µg/mL (≈ 0.811 µM), an MIC ([26]; M. bovigenitalium ATCC 14173, Agar (serial dilution in Friis' agar), read-out: MIC) of 0.078 µg/mL (≈ 0.203 µM) and an MIC [27] of 0.156 µg/mL (≈ 0.406 µM). For the same compound, the MIC [28, 40] was 10 µg/mL (≈ 26 µM), the MIC [28, 41] was 2.5 µg/mL (≈ 6.5 µM) and the MIC ([29]; M. arthritidis ATCC 14124, Agar (serial dilution in Friis' agar), read-out: MIC) was 5 µg/mL (≈ 13 µM). The MIC [30] was 10 µg/mL (≈ 26 µM), the MIC [31] was 1 µg/mL (≈ 2.6 µM) and the MIC [32] was 1 µg/mL (≈ 2.6 µM). It also gave an MIC [33] of 0.5 µg/mL (≈ 1.3 µM), an MIC [34] greater than 80 µg/mL and an MIC [35] of 25 µg/mL (≈ 65 µM). For the same compound, the MIC [36] was 1.25 µg/mL (≈ 3.25 µM), the MIC [37] was 10 µg/mL (≈ 26 µM) and the MIC [38] was 80 µg/mL (≈ 208 µM).

COC(=O)/C=C(\C)CC1OCC(C/C=C/C(C)C(C)O)C(O)C1O (stereo not drawn) [Methyl, Methyl Monate C] was tested, and the MIC [1, 42] was 0.625 µg/mL (≈ 1.83 µM), the MIC [1, 43] was 0.312 µg/mL (≈ 0.911 µM) and the MIC [3] was 1.25 µg/mL (≈ 3.65 µM). It also gave an MIC [4] of 2.5 µg/mL (≈ 7.3 µM), an MIC [8] of 0.156 µg/mL (≈ 0.456 µM) and an MIC [9] of 0.312 µg/mL (≈ 0.911 µM). It also gave an MIC [10] of 5 µg/mL (≈ 14.6 µM), an MIC [11] of 2.5 µg/mL (≈ 7.3 µM) and an MIC [12] of 2.5 µg/mL (≈ 7.3 µM). The MIC [13] was 25 µg/mL (≈ 73 µM), the MIC [14] was 2.5 µg/mL (≈ 7.3 µM) and the MIC [15] was 1 µg/mL (≈ 2.92 µM). It also gave an MIC [18] of 10 µg/mL (≈ 29.2 µM), an MIC [19, 42] greater than 10 µg/mL and an MIC [19, 43] greater than 10 µg/mL. It also gave an MIC [20, 42] of 0.312 µg/mL (≈ 0.911 µM), an MIC [20, 43] of 0.156 µg/mL (≈ 0.456 µM) and an MIC [21] of 25 µg/mL (≈ 73 µM). It also gave an MIC [39] of 2.5 µg/mL (≈ 7.3 µM), an MIC ([22]; S6) greater than 10 µg/mL and an MIC [23] of 0.312 µg/mL (≈ 0.911 µM). It also gave an MIC [24] of 0.312 µg/mL (≈ 0.911 µM), an MIC [25] of 0.625 µg/mL (≈ 1.83 µM) and an MIC [26] of 0.156 µg/mL (≈ 0.456 µM). It also gave an MIC [27] of 0.156 µg/mL (≈ 0.456 µM), an MIC [28, 42] greater than 10 µg/mL and an MIC [28, 43] of 10 µg/mL (≈ 29.2 µM). For the same compound, the MIC [29] was greater than 10 µg/mL, the MIC [31] was 1 µg/mL (≈ 2.92 µM) and the MIC [32] was 2.5 µg/mL (≈ 7.3 µM). The MIC [33] was 1 µg/mL (≈ 2.92 µM), the MIC [35] was greater than 100 µg/mL and the MIC [37] was greater than 100 µg/mL.
